Values of other authors, collected in patent US20050226974A1 (priority 2004, published 2005).

Experiments:
[1] = system: common food spoilage yeasts and moulds; conditions: most strains of common food spoilage yeasts and moulds
[2] = system: yeasts; conditions: some yeasts

SMILES: C[C@@H]1C/C=C/C=C/C=C/C=C/[C@H](O[C@@H]2O[C@H](C)[C@@H](O)[C@H](N)[C@@H]2O)C[C@@H]2O[C@](O)(C[C@@H](O)C[C@H]3O[C@@H]3/C=C/C(=O)O1)C[C@H](O)[C@H]2C(=O)O [Natamycin]
- concentrations inhibiting most strains [1]: 1-15 ppm
- minimal inhibitory concentrations [2]: less than 3 ppm
- solubility dependence on pH: most soluble at high or low pH
- maximum solubility (in water): around 40 ppm
